The values below come from patent publication US20200060276A1, “THIAZOLE COMPOUND AND HERBICIDE” (OAT Agrio Co., Ltd., priority 2017, published 2020).

What is called inhibition is the share of the control response that was lost under treatment.

A value given as a limit tells only on which side of the number the result lay.

Common to all, as to type: in vivo
The subject of assay [1] is Echinochloa crus-galli (L.) P. Beauv. var. formosensis Ohwi. The experiment in a line: Test for Herbicidal Effect in Flooding Treatment (#2), ECHDG at 2-2.5 leaf stage. Particulars: for ECHDG (2-2.5L) #2 herbicidal effect (growth inhibition grade): flooding treatment at 2-2.5 leaf stage, dose 0.2 kg/ha, visual observation on day 21. The essentials:
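Scoring is a visual 0–5 scale of growth inhibition (0 below 10%, 5 at 90% or more or full withering), taken 21 days after treatment in a glasshouse. Dose was 0.2 kg/ha, applied as acetone/Tween 80 aqueous solution onto flooded soil once seedlings reached the 2–2.5 leaf stage.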

Another assay has as its system Cyperus microiria. The experiment in a line: Test for Herbicidal Effect in Flooding Treatment (#1), CYMIC. Particulars: flooding treatment at seeding, dose 2 kg/ha, visual observation on day 21. How it is done:
(#1) Test for Herbicidal Effect in Flooding Treatment: Styrol cups each having an opening diameter of 8 cm (about 52 cm^2) were respectively filled with soil (45 ml) which had been passed through a sieve (2 mm). Water (about 115 ml) was mixed with the soil such that the soil was flooded. After the soil stood still for 24 hours, Monochoria vaginalis, Echinochloa crus-galli (L.) P. Beauv. var. formosensis Ohwi, Cyperus difformis (umbrella sedge), and Scirpus juncoides were seeded. Each of the compounds of the present invention was dissolved in acetone, and the obtained product was then diluted with water containing Tween 80®. Each of the resultant chemical solutions was dropped on the entire surface of an associated one of treatment sections, so that each section was treated with 1 ml of the respective chemical solution (a dose of 2 kg/ha). After the treatment, the plants were grown in a glasshouse. On day 21, a survey was conducted on the herbicidal activity by visual observation, and evaluation was made according to the following criteria. 0: Growth inhibition effect is less than 10%. 1: Growth inhibition effect is equal to or greater than 10%, and less than 30%. 2; Growth inhibition effect is equal to or greater than 30%, and less than 50%. 3: Growth inhibition effect equal to or greater than 50%, and less than 70%. 4: Growth inhibition effect is equal to or greater than 70%, and less than 90%. 5: Growth inhibition effect is equal to or greater than 90%, or complete withering is achieved. ECHDG=Echinochloa crus-galli (L.) P. Beauv. var. formosensis Ohwi, MONVA=Monochoria vaginalis, SCIJU=Scirpus juncoides, CYMIC=Cyperus microiria.

Another assay concerns Scirpus juncoides. The experiment in a line: Test for Herbicidal Effect in Flooding Treatment (#1), SCIJU. Particulars: flooding treatment at seeding, dose 2 kg/ha, visual observation on day 21. The method in brief: (§1)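 Sieved soil in cups was flooded and left 24 h before weed seeds were sown. Compounds in acetone, diluted with Tween 80-containing water, were dropped over the whole surface at 2 kg/ha. After 21 days in a glasshouse, growth inhibition was scored visually from 0 (<10%) to 5 (≥90% or complete withering).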

For assay [2], the system named is Echinochloa crus-galli (L.) P. Beauv. var. formosensis Ohwi. The experiment in a line: Test for Herbicidal Effect in Flooding Treatment (#1), ECHDG. Particulars: flooding treatment at seeding, dose 2 kg/ha, visual observation on day 21. The method in brief: as §1
The subject of another assay is Monochoria vaginalis. The experiment in a line: Test for Herbicidal Effect in Flooding Treatment (#1), MONVA. Particulars: flooding treatment at seeding, dose 2 kg/ha, visual observation on day 21. The essentials: as §1

Take `COc1cc(F)ccc1CS(=O)(=O)c1ncc(Cl)s1` [Compound 1C-3]: in assay [1], the “ECHDG (2-2.5L) #2 herbicidal effect (growth inhibition grade)” value was 4 (Growth inhibition effect is equal to or greater than 70%, and less than 90%). For the same compound, the “CYMIC #1 herbicidal effect (growth inhibition grade)” value in the assay on Cyperus microiria is recorded as 5 (Growth inhibition effect is equal to or greater than 90%, or complete withering is achieved). For the same compound, in the assay with Scirpus juncoides, the “SCIJU #1 herbicidal effect (growth inhibition grade)” value was 5 (Growth inhibition effect is equal to or greater than 90%, or complete withering is achieved). Further, the “ECHDG #1 herbicidal effect (growth inhibition grade)” value in assay [2] is 5 (Growth inhibition effect is equal to or greater than 90%, or complete withering is achieved).

In the case of `COc1cc(Cl)ccc1CS(=O)(=O)c1ncc(Cl)s1` [Compound 1C-4], the “ECHDG (2-2.5L) #2 herbicidal effect (growth inhibition grade)” value in assay [1] was 5 (Growth inhibition effect is equal to or greater than 90%, or complete withering is achieved). In addition, the “CYMIC #1 herbicidal effect (growth inhibition grade)” value in the assay with Cyperus microiria is recorded as 5 (Growth inhibition effect is equal to or greater than 90%, or complete withering is achieved). In addition, the “SCIJU #1 herbicidal effect (growth inhibition grade)” value in the assay with Scirpus juncoides is on record as 5 (Growth inhibition effect is equal to or greater than 90%, or complete withering is achieved). For the same compound, the “ECHDG #1 herbicidal effect (growth inhibition grade)” value in assay [2] was 5 (Growth inhibition effect is equal to or greater than 90%, or complete withering is achieved).

Take `CCOc1c(Cl)cccc1CS(=O)(=O)c1ncc(Cl)s1` [Compound 1C-10]: in assay [1], the “ECHDG (2-2.5L) #2 herbicidal effect (growth inhibition grade)” value was 5 (Growth inhibition effect is equal to or greater than 90%, or complete withering is achieved). In addition, in the assay on Cyperus microiria, the “CYMIC #1 herbicidal effect (growth inhibition grade)” value is 5 (Growth inhibition effect is equal to or greater than 90%, or complete withering is achieved). In the assay with Scirpus juncoides, the “SCIJU #1 herbicidal effect (growth inhibition grade)” value was 5 (Growth inhibition effect is equal to or greater than 90%, or complete withering is achieved). Besides, the “ECHDG #1 herbicidal effect (growth inhibition grade)” value in assay [2] is recorded as 5 (Growth inhibition effect is equal to or greater than 90%, or complete withering is achieved).

`CCOc1cc(F)ccc1CS(=O)(=O)c1ncc(Cl)s1` [Compound 1C-12]: the “ECHDG (2-2.5L) #2 herbicidal effect (growth inhibition grade)” value in assay [1] is 4 (Growth inhibition effect is equal to or greater than 70%, and less than 90%). Besides, the “CYMIC #1 herbicidal effect (growth inhibition grade)” value with Cyperus microiria is recorded as 5 (Growth inhibition effect is equal to or greater than 90%, or complete withering is achieved). Moreover, the “SCIJU #1 herbicidal effect (growth inhibition grade)” value with Scirpus juncoides is 5 (Growth inhibition effect is equal to or greater than 90%, or complete withering is achieved). In addition, the “ECHDG #1 herbicidal effect (growth inhibition grade)” value in assay [2] was 5 (Growth inhibition effect is equal to or greater than 90%, or complete withering is achieved).

Take `CCOc1cc(C)ccc1CS(=O)(=O)c1ncc(Cl)s1` [Compound 1C-13]: in assay [1], the “ECHDG (2-2.5L) #2 herbicidal effect (growth inhibition grade)” value is recorded as 5 (Growth inhibition effect is equal to or greater than 90%, or complete withering is achieved). In the assay with Cyperus microiria, the “CYMIC #1 herbicidal effect (growth inhibition grade)” value is on record as 5 (Growth inhibition effect is equal to or greater than 90%, or complete withering is achieved). In the assay with Scirpus juncoides, the “SCIJU #1 herbicidal effect (growth inhibition grade)” value was 5 (Growth inhibition effect is equal to or greater than 90%, or complete withering is achieved). In addition, the “ECHDG #1 herbicidal effect (growth inhibition grade)” value in assay [2] is on record as 5 (Growth inhibition effect is equal to or greater than 90%, or complete withering is achieved).

For the compound `CCOc1cc(C(F)(F)F)ccc1CS(=O)(=O)c1ncc(Cl)s1` [Compound 1C-14], the “ECHDG (2-2.5L) #2 herbicidal effect (growth inhibition grade)” value in assay [1] was 4 (Growth inhibition effect is equal to or greater than 70%, and less than 90%). Also, the “CYMIC #1 herbicidal effect (growth inhibition grade)” value with Cyperus microiria was 5 (Growth inhibition effect is equal to or greater than 90%, or complete withering is achieved). The “SCIJU #1 herbicidal effect (growth inhibition grade)” value with Scirpus juncoides is reported as 5 (Growth inhibition effect is equal to or greater than 90%, or complete withering is achieved). For the same compound, the “ECHDG #1 herbicidal effect (growth inhibition grade)” value in assay [2] is given as 5 (Growth inhibition effect is equal to or greater than 90%, or complete withering is achieved).

Take `CCOc1ccc(Cl)cc1CS(=O)(=O)c1ncc(Cl)s1` [Compound 1C-16]: the inhibition at 200 g/ha in assay [1] (Echinochloa crus-galli, 504 h, flooding treatment (#2), ECHDG at 2-2.5 leaf stage, dose of 0.2 kg/ha, day 21, visual observation, read-out: growth inhibition effect) is ≥ 90%. Besides, in assay [1], the “ECHDG (2-2.5L) #2 herbicidal effect (growth inhibition grade)” value is given as 5 (Growth inhibition effect is equal to or greater than 90%, or complete withering is achieved). The “CYMIC #1 herbicidal effect (growth inhibition grade)” value in the assay on Cyperus microiria was 5 (Growth inhibition effect is equal to or greater than 90%, or complete withering is achieved). Besides, the “SCIJU #1 herbicidal effect (growth inhibition grade)” value in the assay with Scirpus juncoides is 5 (Growth inhibition effect is equal to or greater than 90%, or complete withering is achieved). Also, the “ECHDG #1 herbicidal effect (growth inhibition grade)” value in assay [2] is 5 (Growth inhibition effect is equal to or greater than 90%, or complete withering is achieved).

Regarding `COc1cccc(OC)c1CS(=O)(=O)c1ncc(Cl)s1` [Compound 1C-127], the “CYMIC #1 herbicidal effect (growth inhibition grade)” value in the assay on Cyperus microiria was 5 (Growth inhibition effect is equal to or greater than 90%, or complete withering is achieved). The “SCIJU #1 herbicidal effect (growth inhibition grade)” value with Scirpus juncoides is 5 (Growth inhibition effect is equal to or greater than 90%, or complete withering is achieved). For the same compound, the “ECHDG #1 herbicidal effect (growth inhibition grade)” value in assay [2] is 5 (Growth inhibition effect is equal to or greater than 90%, or complete withering is achieved).

On to `O=S(=O)(Cc1c(F)cc(F)cc1OC(F)F)c1ncc(Br)s1` [Compound 1C-156], for which, in assay [1], the “ECHDG (2-2.5L) #2 herbicidal effect (growth inhibition grade)” value is 5 (Growth inhibition effect is equal to or greater than 90%, or complete withering is achieved). Also, in the assay on Scirpus juncoides, the “SCIJU #1 herbicidal effect (growth inhibition grade)” value is reported as 5 (Growth inhibition effect is equal to or greater than 90%, or complete withering is achieved). For the same compound, the “MONVA #1 herbicidal effect (growth inhibition grade)” value with Monochoria vaginalis is reported as 5 (Growth inhibition effect is equal to or greater than 90%, or complete withering is achieved). Besides, the “ECHDG #1 herbicidal effect (growth inhibition grade)” value in assay [2] was 5 (Growth inhibition effect is equal to or greater than 90%, or complete withering is achieved).

As for `O=S(=O)(Cc1c(OC(F)F)ccc(Cl)c1F)c1ncc(Br)s1` [Compound 1C-157], the “ECHDG (2-2.5L) #2 herbicidal effect (growth inhibition grade)” value in assay [1] is given as 5 (Growth inhibition effect is equal to or greater than 90%, or complete withering is achieved). In addition, the “SCIJU #1 herbicidal effect (growth inhibition grade)” value in the assay on Scirpus juncoides is on record as 5 (Growth inhibition effect is equal to or greater than 90%, or complete withering is achieved). Besides, the “MONVA #1 herbicidal effect (growth inhibition grade)” value with Monochoria vaginalis was 5 (Growth inhibition effect is equal to or greater than 90%, or complete withering is achieved). Besides, the “ECHDG #1 herbicidal effect (growth inhibition grade)” value in assay [2] is given as 5 (Growth inhibition effect is equal to or greater than 90%, or complete withering is achieved).

In the case of `O=S(=O)(Cc1c(OCC(F)(F)F)cccc1C(F)(F)F)c1ncc(Br)s1` [Compound 1C-162], the “ECHDG (2-2.5L) #2 herbicidal effect (growth inhibition grade)” value in assay [1] is given as 5 (Growth inhibition effect is equal to or greater than 90%, or complete withering is achieved). Also, the “SCIJU #1 herbicidal effect (growth inhibition grade)” value with Scirpus juncoides is 5 (Growth inhibition effect is equal to or greater than 90%, or complete withering is achieved). Also, the “MONVA #1 herbicidal effect (growth inhibition grade)” value in the assay with Monochoria vaginalis is given as 5 (Growth inhibition effect is equal to or greater than 90%, or complete withering is achieved). In addition, the “ECHDG #1 herbicidal effect (growth inhibition grade)” value in assay [2] is given as 5 (Growth inhibition effect is equal to or greater than 90%, or complete withering is achieved).

For the compound `O=S(=O)(Cc1c(F)cccc1OCC(F)(F)C(F)F)c1ncc(Br)s1` [Compound 1C-164], the “ECHDG (2-2.5L) #2 herbicidal effect (growth inhibition grade)” value in assay [1] is recorded as 5 (Growth inhibition effect is equal to or greater than 90%, or complete withering is achieved). Also, the “SCIJU #1 herbicidal effect (growth inhibition grade)” value with Scirpus juncoides is on record as 5 (Growth inhibition effect is equal to or greater than 90%, or complete withering is achieved). In addition, the “MONVA #1 herbicidal effect (growth inhibition grade)” value in the assay on Monochoria vaginalis is 5 (Growth inhibition effect is equal to or greater than 90%, or complete withering is achieved). In assay [2], the “ECHDG #1 herbicidal effect (growth inhibition grade)” value is recorded as 5 (Growth inhibition effect is equal to or greater than 90%, or complete withering is achieved).

On to `CC(c1c(F)cccc1OCC(F)(F)C(F)F)S(=O)(=O)c1ncc(Br)s1` (stereo not shown) [Compound 1C-165], for which the “ECHDG (2-2.5L) #2 herbicidal effect (growth inhibition grade)” value in assay [1] was 3 (Growth inhibition effect equal to or greater than 50%, and less than 70%). Moreover, the “SCIJU #1 herbicidal effect (growth inhibition grade)” value in the assay on Scirpus juncoides is 5 (Growth inhibition effect is equal to or greater than 90%, or complete withering is achieved). The “MONVA #1 herbicidal effect (growth inhibition grade)” value with Monochoria vaginalis is 5 (Growth inhibition effect is equal to or greater than 90%, or complete withering is achieved). Further, the “ECHDG #1 herbicidal effect (growth inhibition grade)” value in assay [2] is 5 (Growth inhibition effect is equal to or greater than 90%, or complete withering is achieved).
